In this assay the target is T1, full length SGK1 (Homo sapiens, UniProt O00141).
T1 construct: 125 μM full length SGK1 (Life Technologies Part #PR7358A); purchased Life Technologies PR7358A
T1 sequence (O00141 1-431): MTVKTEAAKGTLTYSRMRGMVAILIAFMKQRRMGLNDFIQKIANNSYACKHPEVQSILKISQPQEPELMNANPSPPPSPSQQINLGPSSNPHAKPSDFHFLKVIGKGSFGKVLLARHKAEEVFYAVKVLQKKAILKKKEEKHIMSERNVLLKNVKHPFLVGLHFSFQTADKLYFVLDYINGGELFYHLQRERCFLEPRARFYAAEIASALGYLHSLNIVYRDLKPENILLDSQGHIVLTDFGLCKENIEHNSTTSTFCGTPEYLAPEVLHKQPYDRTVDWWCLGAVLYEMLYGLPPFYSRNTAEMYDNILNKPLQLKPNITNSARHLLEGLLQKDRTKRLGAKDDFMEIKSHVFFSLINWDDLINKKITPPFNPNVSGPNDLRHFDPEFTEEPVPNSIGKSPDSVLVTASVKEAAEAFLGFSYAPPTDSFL
As to the kind of experiment: SGK1 inhibition Assay A (Caliper LabChip electrophoretic separation of fluorescent peptide substrate and phosphorylated product). It counts as biochemical. To be noted: Assay A; 20 μM ATP, 40 min incubation; read-out: SGK1 IC50.

As usually defined, the IC50 is the point on the concentration scale where inhibition reaches its midpoint.

Where a name gives a salt, the structure may show the parent alone.

Regarding `CS(=O)(=O)c1ccc(-c2cc(N3CCC[C@@H](NC(=O)c4cccs4)C3)c3c(N)ncnn23)cc1` [Example 88, (R)-N-(1-(4-amino-7-(4-(methylsulfonyl)phenyl)pyrrolo[2,1-f][1,2,4]triazin-5-yl)piperidin-3-yl)thiophene-2-carboxamide, TFA], the IC50 worked out at 8 nM.

Turning to `Cc1cc(C(=O)N[C@@H]2CCCN(c3cc(-c4ccc(S(C)(=O)=O)cc4)n4ncnc(N)c34)C2)sc1C` [Example 89, (R)-N-(1-(4-amino-7-(4-(methylsulfonyl)phenyl)pyrrolo[2,1-f][1,2,4]triazin-5-yl)piperidin-3-yl)-4,5-dimethylthiophene-2-carboxamide], the IC50 was found to be 6 nM.

Take `CS(=O)(=O)c1ccc(-c2cc(N3CCC[C@@H](NC(=O)c4cc5c(s4)CCCC5)C3)c3c(N)ncnn23)cc1` [Example 90, (R)-N-(1-(4-amino-7-(4-(methylsulfonyl)phenyl)pyrrolo[2,1-f][1,2,4]triazin-5-yl)piperidin-3-yl)-4,5,6,7-tetrahydrobenzo[b] thiophene-2-carboxamide]: the IC50 stood at 49 nM.

`CCc1ccc(C(=O)N[C@@H]2CCCN(c3cc(-c4ccc(S(C)(=O)=O)cc4)n4ncnc(N)c34)C2)s1` [Example 91, (R)-N-(1-(4-amino-7-(4-(methylsulfonyl)phenyl)pyrrolo[2,1-f][1,2,4]triazin-5-yl)piperidin-3-yl)-5-ethylthiophone-2-carboxamide]: the IC50 came to 10 nM.

For `CS(=O)(=O)c1ccc(-c2cc(N3CCC[C@@H](NC(=O)c4ccc(C5CC5)s4)C3)c3c(N)ncnn23)cc1` [Example 92, (R)-N-(1-(4-amino-7-(4-(methylsulfonyl)phenyl)pyrrolo[2,1-f][1,2,4]triazin-5-yl)piperidin-3-yl)-5-cyclopropylthiophene-2-carboxamide, TFA], the IC50 came to 10 nM.

`CS(=O)(=O)c1ccc(-c2cc(N3CCC[C@@H](NC(=O)c4ccc(F)s4)C3)c3c(N)ncnn23)cc1` [Example 93, (R)-N-(1-(4-amino-7-(4-(methylsulfonyl)phenyl)pyrrolo[2,1-f][1,2,4]triazin-5-yl)piperidin-3-yl)-5-fluorothiophene-2-carboxamide]: the IC50 was determined as 5 nM.

Turning to `CS(=O)(=O)c1ccc(-c2cc(N3CCC[C@@H](NC(=O)c4ccc(Cl)s4)C3)c3c(N)ncnn23)cc1` [Example 94, (R)-N-(1-(4-amino-7-(4-(methylsulfonyl)phenyl)pyrrolo[2,1-f][1,2,4]triazin-5-yl)piperidin-3-yl)-5-chlorothiophene-2-carboxamide], the IC50 amounted to 3 nM.

For the compound `CS(=O)(=O)c1ccc(-c2cc(N3CCC[C@@H](NC(=O)c4ccc(Br)s4)C3)c3c(N)ncnn23)cc1` [Example 95, (R)-N-(1-(4-amino-7-(4-(methylsulfonyl)phenyl)pyrrolo[2,1-f][1,2,4]triazin-5-yl)piperidin-3-yl)-5-bromothiophene-2-carboxamide, TFA], the IC50 came to 6 nM.

In the case of `COc1ccc(C(=O)N[C@@H]2CCCN(c3cc(-c4ccc(S(C)(=O)=O)cc4)n4ncnc(N)c34)C2)s1` [Example 96, (R)-N-(1-(4-amino-7-(4-(methylsulfonyl)phenyl)pyrrolo[2,1-f][1,2,4]triazin-5-yl)piperidin-3-yl)-5-methoxythiophene-2-carboxamide], the IC50 stood at 8 nM.

Consider `Cc1csc(C(=O)N[C@@H]2CCCN(c3cc(-c4ccc(S(C)(=O)=O)cc4)n4ncnc(N)c34)C2)c1` [Example 97, (R)-N-(1-(4-amino-7-(4-(methylsulfonyl)phenyl)pyrrolo[2,1-f][1,2,4]triazin-5-yl)piperidin-3-yl)-4-methylthiophene-2-carboxamide, TFA], for which the IC50 amounted to 3 nM.

Regarding `CS(=O)(=O)c1ccc(-c2cc(N3CCC[C@@H](NC(=O)c4sccc4F)C3)c3c(N)ncnn23)cc1` [Example 98, (R)-N-(1-(4-amino-7-(4-(methylsulfonyl)phenyl)pyrrolo[2,1-f][1,2,4]triazin-5-yl)piperidin-3-yl)-3-fluorothiophene-2-carboxamide], the half-maximal inhibitory concentration (IC50) worked out at 14 nM.
